Key:
Humulin® N (U40) = assay: Modified 10X Glycerin Stress Test (Mod.10X-GST): HMWP growth by size exclusion HPLC; assay type: physicochemical, human
Experimental: One milliliter of Humulin® N (U40, Eli Lilly & Co., Indianapolis IN, USA) is spiked with about 160 mg (about 128 µl) of glycerin to be tested. This glycerin level is about ten times the normal level found in commercial products. Another milliliter of Humulin® N U40 is spiked with 128 µL of water. Both samples are stored at 30°C for 7 days. The high molecular weight protein (HMWP) level of the two samples is then measured by size exclusion HPLC chromatography under denaturing conditions [e.g., Waters column labeled "Protein-Pak 125 insulin assay certified", Waters Corporation (Milford, MA, USA) part number 20574; mobile phase 65 parts of a 1 mg/mL L-arginine solution, 20 parts of acetonitrile and 15 parts of glacial acetic acid]. The test samples are solubilized by acidification with a small volume of 9.6 N HCl prior to analysis.
The HMWP growth in the sample is calculated as the HMWP level in the 30°C test sample minus the HMWP level in the water spiked control. Percent growth is reported per 7 day period.

Humulin® R (U40) = assay: 10X Glycerin Stress Test (10X-GST): HMWP growth by size exclusion HPLC; assay type: physicochemical, human; details: Humulin® R with 160 mg/mL glycerin, 7 days at 30°C minus frozen control
Experimental: The 10X Glycerin Stress Test (10X-GST) measures the formation of covalent dimers and polymers in an insulin composition. Glycerin to be tested is added to Humulin® R (U40, Eli Lilly & Co., Indianapolis IN, USA) to a final concentration of 160 mg/mL of glycerin, i.e., ten times the level of glycerin normally used in this formulation. One aliquot of the resulting formulation is incubated at 30°C for 7 days, while a second aliquot is stored frozen over the same time period. Then, the high molecular weight protein (HMWP) level of the two aliquots is measured by size exclusion HPLC chromatography under denaturing conditions (e.g., Zorbax GF 250 Special column; mobile phase 65 parts of 0.1M ammonium phosphate buffer at pH 7.5 and 35 parts acetonitrile; detection at 214 nm). The growth of HMWP in the test formulation is the concentration of HMWP in the 30°C sample minus the concentration of HMWP in the frozen control.

[1] = Humulin® N with treated or untreated glycerin, 7 days at 30°C, Table 7
[2] = Humulin® N spiked with about 160 mg glycerin per mL, 7 days at 30°C minus water spiked control, Table 5

Mod.10X-GST Test (Humulin® N (U40); [1]) [%] | Mod.10X-GST Test (Humulin® N (U40); [2]) [%] | 10X-GST Test (Humulin® R (U40)) | Compound
1.84 | – | – | OCC(O)CO [Sample 1, glycerin]
1.58 | – | – | OCC(O)CO [Sample 2, glycerin]
-0.27 | – | – | OCC(O)CO [Sample 5, glycerin]
4.68 | 0.13 | 0.13 | OCC(O)CO [Sample 6, glycerin]
3.65 | 0.09 | 0.22 | OCC(O)CO [Sample 7, glycerin]
– | 0.17 | 0.01 | OCC(O)CO [Sample 8, glycerin]
-0.03 | – | – | OCC(O)CO [Sample 10, glycerin]
